Assay results: EPA's ToxValDB 9.5 (doi:10.2903/j.efsa.2009.339r)

Assays:
Typhlodromus pyri = test: LR50; higher = less toxic; details: acute; duration: 14 days; mortality
Rattus norvegicus = details: acute; oral; mortality
[1] = reproductive; oral; feed
Tagia sp. = details: acute; mortality
Bibionidae = details: chronic/long-term; duration: 28 days
Canidae = details: chronic; duration: 1 years; oral; Dog Other; clinical chemistry
Apis mellifera = details: acute; duration: 48 hours; oral; unspecified; mortality
Daphnia magna = details: chronic/long-term; duration: 21 days; reproduction

For `CCC(C)(C)C(=O)OC1=C(c2ccc(Cl)cc2Cl)C(=O)OC12CCCCC2` [Spirodiclofen], the LR50 (Typhlodromus pyri) was 2.4 g/ha, the LC50 (Oncorhynchus mykiss; acute, duration: 96 hours, mortality) was over 0.0351 µg/mL and the NOEC (Oncorhynchus mykiss; chronic/long-term, duration: 97 days, time to hatch) was 0.00195 mg/L. For the same compound, the LD50 (Rattus norvegicus) was over 2500 mg/kg, the NOEC [1] was 6 mg/kg-day and the LC50 (Tagia sp.) was over 1000 mg/kg. It also gave an NOEC (Anas platyrhynchos; reproductive) of 111 mg/kg-day, an LC50 (Anas platyrhynchos; short-term, oral, feed, mortality) of over 2270 mg/kg-day and an NOEC (Bibionidae) of 0.032 mg/L. For the same compound, the NOAEL (Canidae) was 1.45 mg/kg-day, the LC50 (Colinus virginianus; acute, oral, diet, mortality) was over 1060 mg/kg-day and the LD50 (Colinus virginianus; acute, oral, mortality) was over 2000 mg/kg. The NOEC (Colinus virginianus; reproduction developmental) was 51 mg/kg-day, the LD50 (Apis mellifera) was over 196 µg/piece and the NOEC (Daphnia magna) was 0.0111 mg/L.
